Measured values: article PMC5318888, “SAMHD1 enhances nucleoside-analogue efficacy against HIV-1 in myeloid cells” (Scientific Reports, 2017)

Columns and labels:
SAMHD1 = target: T1, SAMHD1 (Homo sapiens, UniProt Q9Y3Z3); design: method as in PMID 25331707; conditions: previous in vitro assays; cited from earlier work
T1 construct: The final concentrations were 100 nM SAMHD1(115–626), 10 nM Ppx1; strep-tag; made in house

HIV-1-GFP [1] = test: microbe, parasite or virus in culture; type: cell-based
Experimental: H9 and Jurkat cells (6 × 10^5 cells/mL) were treated with increasing concentrations of nucleoside analogues (0–200 μM; except CFB, 0–1.6 μM) and incubated for 4 h at 37 °C in 5% CO2. Cells were then infected with HIV-1-GFP by spinoculation at 800 × g for 90 min in the presence of 1 μg/mL polybrene, and further incubated at 37 °C in 5% CO2 for 72 h. Undifferentiated U937 and THP-1 (PMA^−) cells (6 × 10^5 cells/mL) were treated with increasing concentrations of nucleoside analogues (0–200 μM; except CFB, 0–1.6 μM) and incubated at 37 °C in 5% CO2 for 48 h. Cells were then infected with HIV-1-GFP by spinoculation at 800 × g for 90 min in the presence of 1 μg/mL polybrene, and further incubated at 37 °C in 5% CO2 for 72 h. Non-dividing U937 and THP-1 (PMA^+) cells (6 × 10^5 cells/mL) were differentiated by addition of 100 nM PMA (PMA^+) for 48 h and treated with increasing concentrations of nucleoside analogues as described above. Cells were then infected with HIV-1-GFP in the presence of 1 μg/mL polybrene and further incubated at 37 °C in 5% CO2 for 72 h. The percentage of GFP^+cells was determined by one-colour flow cytometry using a Fortessa X20 analyser (BD Biosciences) and the data analysed using the FlowJo software suite.
(§1) Non-ambiguous values were subjected to a replicate test to calculate confidence intervals of 95% (95% CI). CC50 and EC50 values were determined for at least two independent experiments for each nucleoside analogue and a selectivity index (SI) also calculated, (SI = CC50/EC50). EC50 values for each replicate were used to perform an unpaired two-tailed t-test to determine significant differences between U937 cells expressing SAMHD1 wt or HD206-7AA mutant and THP-1 cells expressing Vpx or untransduced cells. P values of <0.005 were considered statistically significant.

in vitro = type: cell-based; conditions: human
Experimental: (§2) H9, Jurkat and undifferentiated U937 and THP-1 (PMA^−) cells (6 × 10^5 cells/mL) were treated with increasing concentrations of nucleoside analogues (0–200 μM; except CFB, 0–1.6 μM) and incubated at 37 °C in 5% CO2 for 48 h. Medium was then replaced and cells were further incubated for 72 h. Non-dividing U937 and THP-1 (PMA^+) cells (6 × 10^5 cells/mL) were differentiated by addition of 100 nM phorbol-12-myristate-13-acetate (PMA^+) for 48 h and then treated with increasing concentrations of nucleoside analogues as described above. The percentage of live cells was determined by flow cytometry using Live/Dead fixable blue-fluorescent dyes (Invitrogen) and a Fortessa X20 analyser (BD Biosciences). Data were analysed using the FlowJo software suite.
as §1, with “The cytotoxic concentration of nucleoside analogue that inhibits cell viability by 50% (CC50) and the effective concentration of nucleoside analogue that inhibits infection of cells by 50% (EC50) were calculated for each independent experiment by non-linear regression using GraphPad Prism v6.00 for Windows (GraphPad Software, San Diego, CA). Non-ambiguous” for “Non-ambiguous”

HIV-1-GFP [2] = test: Anti-HIV-1 activity in THP-1 cells with or without Vpx transduction; type: cell-based
Experimental: (§3) Antiviral assays were further performed in monocytoid cells transduced with YFP-expressing VLPs containing WT SAMHD1, HD206-7AA or Vpx. Briefly, U937 cells (6 × 10^5 cells/mL) were transduced with WT SAMHD1-YFP or HD206-7AA-YFP VLPs by spinoculation at 800 × g for 90 min in the presence of 1 μg/mL polybrene. Similarly, THP-1 cells (6 × 10^5 cells/mL) were transduced with Vpx-YFP VLPs by spinoculation at 800 × g for 90 min in the presence of 1 μg/mL polybrene. Cells were incubated at 37 °C in 5% CO2 and after 72 h, PMA^+ cells (6 × 10^5 cells/mL) were treated with 100 nM PMA and PMA^− cells (7.5 × 10^4 cells/mL) were left untreated. Cells were then incubated at 37 °C in 5% CO2 for 48 h. Nucleoside analogues were added at increasing concentrations (0–200 μM; except CFB, 0–1.6 μM) and cells were further incubated for 48 h. PMA^− cells were then infected with HIV-1-GFP by spinoculation at 800 × g for 90 min in the presence of 1 μg/mL polybrene, PMA^+ cells were infected with HIV-1-GFP in the presence of 1 μg/mL polybrene only. Cells were incubated for 72 h at 37 °C in 5% CO2 and then analysed by two-colour flow cytometry using a Fortessa X20 analyser (BD Biosciences). Data were analysed using the FlowJo software suite.
as §1, with “The cytotoxic concentration of nucleoside analogue that inhibits cell viability by 50% (CC50) and the effective concentration of nucleoside analogue that inhibits infection of cells by 50% (EC50) were calculated for each independent experiment by non-linear regression using GraphPad Prism v6.00 for Windows (GraphPad Software, San Diego, CA). Non-ambiguous” for “Non-ambiguous”

[3] = Cytotoxicity, live cells by flow cytometry, THP-1 cells (PMA−/PMA+); type: cell-based; conditions: human, CC50
Experimental: as §2
as §1, with “The cytotoxic concentration of nucleoside analogue that inhibits cell viability by 50% (CC50) and the effective concentration of nucleoside analogue that inhibits infection of cells by 50% (EC50) were calculated for each independent experiment by non-linear regression using GraphPad Prism v6.00 for Windows (GraphPad Software, San Diego, CA). Non-ambiguous” for “Non-ambiguous”

THP-1 cells = test: as above; type: cell-based; conditions: human, 48 h
Experimental: as §2
as §1, with “The cytotoxic concentration of nucleoside analogue that inhibits cell viability by 50% (CC50) and the effective concentration of nucleoside analogue that inhibits infection of cells by 50% (EC50) were calculated for each independent experiment by non-linear regression using GraphPad Prism v6.00 for Windows (GraphPad Software, San Diego, CA). Non-ambiguous” for “Non-ambiguous”

[4] = Cytotoxicity, live cells by flow cytometry, U937 cells (PMA−/PMA+); type: cell-based; conditions: human, CC50
Experimental: as §2
as §1, with “The cytotoxic concentration of nucleoside analogue that inhibits cell viability by 50% (CC50) and the effective concentration of nucleoside analogue that inhibits infection of cells by 50% (EC50) were calculated for each independent experiment by non-linear regression using GraphPad Prism v6.00 for Windows (GraphPad Software, San Diego, CA). Non-ambiguous” for “Non-ambiguous”

U937 cells = test: as above; type: cell-based; conditions: human, 48 h
Experimental: as §2
as §1, with “The cytotoxic concentration of nucleoside analogue that inhibits cell viability by 50% (CC50) and the effective concentration of nucleoside analogue that inhibits infection of cells by 50% (EC50) were calculated for each independent experiment by non-linear regression using GraphPad Prism v6.00 for Windows (GraphPad Software, San Diego, CA). Non-ambiguous” for “Non-ambiguous”

[5] = Cytotoxicity, live cells by flow cytometry, Jurkat cells; type: cell-based; conditions: human
Experimental: as §2
as §1, with “The cytotoxic concentration of nucleoside analogue that inhibits cell viability by 50% (CC50) and the effective concentration of nucleoside analogue that inhibits infection of cells by 50% (EC50) were calculated for each independent experiment by non-linear regression using GraphPad Prism v6.00 for Windows (GraphPad Software, San Diego, CA). Non-ambiguous” for “Non-ambiguous”

[6] = Cytotoxicity, live cells by flow cytometry, H9 cells; type: cell-based; conditions: human
Experimental: as §2
as §1, with “The cytotoxic concentration of nucleoside analogue that inhibits cell viability by 50% (CC50) and the effective concentration of nucleoside analogue that inhibits infection of cells by 50% (EC50) were calculated for each independent experiment by non-linear regression using GraphPad Prism v6.00 for Windows (GraphPad Software, San Diego, CA). Non-ambiguous” for “Non-ambiguous”

HIV-1-GFP [7] = test: Anti-HIV-1 activity in U937 cells transduced with wt SAMHD1 or HD206-7AA mutant; type: cell-based
Experimental: as §3
as §1, with “The cytotoxic concentration of nucleoside analogue that inhibits cell viability by 50% (CC50) and the effective concentration of nucleoside analogue that inhibits infection of cells by 50% (EC50) were calculated for each independent experiment by non-linear regression using GraphPad Prism v6.00 for Windows (GraphPad Software, San Diego, CA). Non-ambiguous” for “Non-ambiguous”

T1 sequence (Q9Y3Z3 115-626): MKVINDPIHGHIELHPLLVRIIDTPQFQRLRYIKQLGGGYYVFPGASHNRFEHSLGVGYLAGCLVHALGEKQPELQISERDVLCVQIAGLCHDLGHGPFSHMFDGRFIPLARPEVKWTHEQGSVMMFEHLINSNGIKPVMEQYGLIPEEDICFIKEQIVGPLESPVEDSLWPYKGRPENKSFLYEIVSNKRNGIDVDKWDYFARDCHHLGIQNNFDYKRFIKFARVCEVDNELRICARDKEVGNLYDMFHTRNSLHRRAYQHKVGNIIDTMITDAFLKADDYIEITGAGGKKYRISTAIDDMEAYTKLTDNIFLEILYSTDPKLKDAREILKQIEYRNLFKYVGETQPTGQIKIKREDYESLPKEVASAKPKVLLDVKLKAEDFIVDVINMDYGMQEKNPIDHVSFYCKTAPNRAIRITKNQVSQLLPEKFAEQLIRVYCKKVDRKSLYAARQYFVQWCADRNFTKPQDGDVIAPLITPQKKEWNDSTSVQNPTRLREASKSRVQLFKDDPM

Q: For `Nc1nc(Cl)nc2c1ncn2[C@@H]1O[C@H](COP(=O)(O)OP(=O)(O)OP(=O)(O)O)[C@@H](O)[C@@H]1F` [CFB-TP, Clofarabine triphosphate], which “hydrolysis by SAMHD1 (substrate)” value (SAMHD1) is on record?
A: The value was “substrate hydrolysed by SAMHD1 at a rate comparable to natural dNTP substrates”.

Q: What does the source list for `Nc1nc(O)c2ncn(COC(CO)COP(=O)(O)OP(=O)(O)OP(=O)(O)O)c2n1` (stereo not shown) [GCV-TP, Ganciclovir triphosphate]?
A: allosteric activation of SAMHD1 (SAMHD1): displayed no activation of SAMHD1; hydrolysis by SAMHD1 (substrate) (SAMHD1): non-hydrolysable

Q: Which EC50 (HIV-1-GFP [1]; Human immunodeficiency virus 1, THP-1, read-out: EC50 [95% CI], THP1 PMA+) does the source give for `O=c1[nH]cnc2c1ncn2[C@H]1CC[C@@H](CO)O1` [ddI, 2′,3′-dideoxyinosine] here?
A: Its EC50 is 0.093 µM.

Q: What about the EC50 (HIV-1-GFP [1]; Human immunodeficiency virus 1, THP-1, read-out: EC50 [95% CI], THP1 PMA−) of the same molecule?
A: The EC50 was 2.03 µM.

Q: What about the EC50 (HIV-1-GFP [1]; Human immunodeficiency virus 1, U-937, read-out: EC50 [95% CI], U937 PMA+) of the same molecule?
A: The EC50 was 2.45 µM.

Q: What about the EC50 (HIV-1-GFP [1]; Human immunodeficiency virus 1, U-937, read-out: EC50 [95% CI], U937 PMA−) of the same molecule?
A: Its EC50 is 45.8 µM.

Q: What about the CC50 at 48 h (in vitro) of the same molecule?
A: Its CC50 at 48 h is > 200 µM.

Q: What about the EC50 (HIV-1-GFP [2]; Human immunodeficiency virus 1, THP-1, read-out: EC50 [95% CI], THP1 PMA+, Vpx+) of the same molecule?
A: The EC50 was 4.34 µM.

Q: What about the EC50 (HIV-1-GFP [2]; Human immunodeficiency virus 1, THP-1, read-out: EC50 [95% CI], THP1 PMA+, Vpx−) of the same molecule?
A: The EC50 was 0.079 µM.

Q: And the EC50 (HIV-1-GFP [2]; Human immunodeficiency virus 1, THP-1, read-out: EC50 [95% CI], THP1 PMA−, Vpx+)?
A: The EC50 was 2.73 µM.

Q: What about the EC50 (HIV-1-GFP [2]; Human immunodeficiency virus 1, THP-1, read-out: EC50 [95% CI], THP1 PMA−, Vpx−) of the same molecule?
A: Its EC50 is 1.04 µM.

Q: And the CC50 at 48 h [3]?
A: The CC50 at 48 h was > 200 µM.

Q: What about the CC50 (THP-1 cells) of the same molecule?
A: Its CC50 is > 200 µM.

Q: And the CC50 at 48 h [4]?
A: Its CC50 at 48 h is > 200 µM.

Q: What about the CC50 (U937 cells) of the same molecule?
A: The CC50 was > 200 µM.

Q: What about the CC50 at 48 h [5] of the same molecule?
A: Its CC50 at 48 h is > 200 µM.

Q: What about the CC50 at 48 h [6] of the same molecule?
A: Its CC50 at 48 h is > 200 µM.

Q: And the EC50 (HIV-1-GFP [7]; Human immunodeficiency virus 1, U-937, read-out: EC50 [95% CI], U937 PMA+, HD206/7AA+ population)?
A: The EC50 was 8.79 µM.

Q: And the EC50 (HIV-1-GFP [7]; Human immunodeficiency virus 1, U-937, read-out: EC50 [95% CI], U937 PMA+, SAMHD1+ population)?
A: The EC50 was 0.109 µM.

Q: What about the EC50 (HIV-1-GFP [7]; Human immunodeficiency virus 1, U-937, read-out: EC50 [95% CI], U937 PMA−, HD206/7AA+ population) of the same molecule?
A: The EC50 was 55.1 µM.

Q: And the EC50 (HIV-1-GFP [7]; Human immunodeficiency virus 1, U-937, read-out: EC50 [95% CI], U937 PMA−, SAMHD1+ population)?
A: The EC50 was 23.7 µM.
